{"source": "patent US9540664B2", "about": "“Systems and methods for improving ethanol yield” (POET Research, Inc, priority 2011, dated 2017)", "key": {"yeast [1]": {"test_system": "yeast", "details": "320 gal per 720,000 gal or 250 gal per 550,000 gal fermentor, added 1.5 hours into fill, 36% dry solids", "experimental": "In commercial ethanol production facilities, acetic acid is thought to be inhibitory to yeast growth and fermentation. […] The dosage of acetic acid used is 320 gal per 720,000 gal fermentor or 250 gal per 550,000 gal fermentor and the acetic acid is added at 1.5 hours into fill of the fermentor (which would be about 1 hour after yeast inoculation from the yeast conditioning tank). […] A few batches were conducted with added acetic acid (primed) and a few batches were operated normally without additional acetic acid."}, "yeast [2]": {"test_system": "yeast", "experimental": "The entire experiment was conducted in duplicate.\nIn this experiment, corn that was ground using a hammer mill to >90% fines was obtained from a nearby biorefinery. […] The slurry (˜70 mL) was prepared by weighing out the appropriate amount of corn and water into each individual reactor. Lactoside247™ was added at 2.5 ppm to prevent any lactic acid bacterial contamination. Urea was added ˜0.24 g/L (4 mM) for a nitrogen source.\nA raw starch hydrolyzing enzyme blend was added at 0.2 g/L. Everything was added to the reactor in such a way that the final volume in the reactor was 70 mL. […] (88° F.). […] (82° F.). Samples were withdrawn at 0, 24, 48, 72, and 88 hr of fermentation and analyzed for sugars, glycerol, organic acids and ethanol using HPLC.\nAbout 4 mL of sample was withdrawn at each time point. These samples were centrifuged at 4500 rpm for 2 min. The supernatant was then filtered through a 0.2 μpore size filter into HPLC vials. […] An aliquot (5 μL) of the sample was injected by the auto-injector onto a reverse phase column (HPX-87H from BioRad Laboratories) maintained at 50° C. Aqueous sulfuric acid at 0.005M was used as the mobile phase (eluent). […] The components (sugars, organic acids, and ethanol) were identified and quantified using Waters Empower software."}, "yeast [3]": {"test_system": "yeast", "details": "20% w/v sucrose", "experimental": "For this example, a laboratory media with sucrose was used. The media used was Yeast extract-Peptone (YP) broth supplemented with 20% w/v (200 g/L) sucrose. An acetic acid dose response (at 500, 1000, 1500, 2000, 2500, and 3000 ppm) was conducted. Control with no added acetic acid was also included. The fermenters were pH adjusted to 4.5 and after yeast inoculation the fermentations were carried out for 30 hours at 32° C. After 30 h, samples were withdrawn and analyzed for sugars, organic acids, and ethanol. Samples were also withdrawn at 24 h and yeast growth was monitored by optical density measurement at 600 nm."}, "yeast [4]": {"test_system": "yeast", "details": "24 hours at 88° F.", "experimental": "The samples were serially diluted and appropriate dilutions were plated on to Yeast extract-Malt extract (YM) agar plates. The plates were incubated at 30° C. and the colonies formed were counted after 48 h. The results were expressed as colony forming units (CFU) per mL.\nSamples tested include a control with no acetic acid addition, and samples treated at 1200 ppm and 2400 ppm respectively."}}, "note": "Like-named read-outs stand apart in the source and are kept apart here.", "data": [{"compound": "CC(=O)O", "note": "[acetic acid]", "values": [{"measurement": "ethanol production, primed vs no priming", "setting": "yeast [1]", "value": "increased ethanol production"}, {"measurement": "glycerol production, primed vs no priming", "setting": "yeast [1]", "value": "decreases glycerol production significantly"}, {"measurement": "effect on ethanol titers", "setting": "yeast [2]; 0.12% to 0.24% (1200-2400 ppm) acetic acid, initial pH 4.7 or 5.2", "value": "increased ethanol titers"}, {"measurement": "effect on ethanol production", "setting": "yeast [2]; highest concentration tested 0.37% w/v, especially at pH 4.2", "value": "inhibitory effect"}, {"measurement": "effect on ethanol production", "setting": "yeast [2]; initial pH 4.2", "value": "No major benefits"}, {"measurement": "maximum reduction in glycerol", "setting": "yeast [2]; initial pH 4.7, initial acetic acid 0.24% w/v", "value": "over 50%"}, {"measurement": "highest ethanol titer", "setting": "yeast [2]; initial pH 4.7, initial acetic acid 0.24% w/v, 36% dry solids, 88 hr fermentation", "value": 20.5, "unit": "% v/v"}, {"measurement": "effect on ethanol conversion efficiency", "setting": "yeast [3]; above 2500 ppm acetic acid, pH 4.5", "value": "inhibitory to fermentation"}, {"measurement": "effect on ethanol conversion efficiency", "setting": "yeast [3]; initial acetic acid between 2000 and 2500 ppm, pH 4.5, 30 hours at 32° C", "value": "stimulatory effect"}, {"measurement": "reduction in cell counts", "setting": "yeast [4]; initial acetic acid 1200 ppm", "value": "About 24%"}, {"measurement": "reduction in cell counts", "setting": "yeast [4]; initial acetic acid 2400 ppm", "value": "~32", "unit": "%"}]}]}
